According to article PMC10280043 (RSC Advances, 2023):

Columns and labels:
hCAII = hCAII (Homo sapiens, UniProt P00918); experiment: Carbonic anhydrase inhibition assay, hCAII; assay type: biochemical
hCAIX = hCAIX (Homo sapiens, UniProt Q16790); experiment: biochemical
hCAXII = hCAXII (Homo sapiens, UniProt O43570); experiment: Carbonic anhydrase inhibition assay, hCAXII; assay type: biochemical
Chain of hCAXII (O43570 25-354): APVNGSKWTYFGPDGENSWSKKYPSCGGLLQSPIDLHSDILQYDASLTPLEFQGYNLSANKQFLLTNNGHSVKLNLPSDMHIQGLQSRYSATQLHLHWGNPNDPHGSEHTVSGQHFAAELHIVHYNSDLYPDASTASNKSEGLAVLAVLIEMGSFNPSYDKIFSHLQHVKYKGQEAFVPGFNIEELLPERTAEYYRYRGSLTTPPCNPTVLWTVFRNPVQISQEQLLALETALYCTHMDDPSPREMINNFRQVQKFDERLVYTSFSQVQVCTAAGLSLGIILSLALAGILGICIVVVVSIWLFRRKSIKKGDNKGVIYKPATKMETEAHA

SMILES	IC50 (hCAII)	IC50 (hCAIX)	IC50 (hCAXII)
COc1cccc(C2CC(c3cc(Cl)cc(Cl)c3O)=NN2c2ccc(S(N)(=O)=O)cc2)c1 (stereo not drawn) [4i, 4-(3-(3,5-Dichloro-2-hydroxyphenyl)-5-(3-methoxyphenyl)-4,5-dihydro-1H-pyrazol-1-yl)benzene sulfonamide]	8150 ± 190 nM	4510 ± 220 nM	1600 ± 10 nM
NS(=O)(=O)c1ccc(N2N=C(c3ccccc3O)CC2c2ccc(Cl)cc2)cc1 (stereo not drawn) [4c, 4-(5-(4-Chlorophenyl)-3-(2-hydroxyphenyl)-4,5-dihydro-1H-pyrazol-1-yl)benzene sulfonamide]	1200 ± 400 nM	7080 ± 400 nM	2870 ± 20 nM
NS(=O)(=O)c1ccc(N2N=C(c3cc(Br)ccc3O)CC2c2ccc(Br)cc2)cc1 (stereo not drawn) [4h, 4-(3-(5-Bromo-2-hydroxyphenyl)-5-(4-bromophenyl)-4,5-dihydro-1H-pyrazol-1-yl)benzene sulfonamide]	17200 ± 1770 nM	260 ± 40 nM	380 ± 100 nM
Cc1ccc(C2CC(c3cc(Br)ccc3O)=NN2c2ccc(S(N)(=O)=O)cc2)cc1 (stereo not drawn) [4f, 4-(3-(5-Bromo-2-hydroxyphenyl)-5-(p-tolyl)-4,5-dihydro-1H-pyrazol-1-yl)benzene sulfonamide]		240 ± 80 nM	6970 ± 140 nM

Now from value to compound:

IC50 (hCAII)	IC50 (hCAIX)	IC50 (hCAXII)	SMILES
		1000 ± 90 nM	COc1ccccc1C1CC(c2ccc(F)cc2O)=NN1c1ccc(S(N)(=O)=O)cc1 (stereo not drawn) [4k, 4-(3-(4-Fluoro-2-hydroxyphenyl)-5-(2-methoxyphenyl)-4,5-dihydro-1H-pyrazol-1-yl)benzene sulfonamide]
8260 ± 990 nM	5280 ± 690 nM	120 ± 70 nM	COc1cccc(C2CC(c3cc(Br)ccc3O)=NN2c2ccc(S(N)(=O)=O)cc2)c1 (stereo not drawn) [4g, 4-(3-(5-Bromo-2-hydroxyphenyl)-5-(3-methoxyphenyl)-4,5-dihydro-1H-pyrazol-1-yl)benzene sulfonamide]
390 ± 50 nM	150 ± 70 nM	280 ± 50 nM	Cc1ccc(C2CC(c3ccc(F)cc3O)=NN2c2ccc(S(N)(=O)=O)cc2)cc1 (stereo not drawn) [4j, 4-(3-(4-Fluoro-2-hydroxyphenyl)-5-(p-tolyl)-4,5-dihydro-1H-pyrazol-1-yl)benzene sulfonamide]
